ChEMBL document CHEMBL3407401, “Development of certain novel N-(2-(2-(2-oxoindolin-3-ylidene)hydrazinecarbonyl)phenyl)-benzamides and 3-(2-oxoindolin-3-ylideneamino)-2-substituted quinazolin-4(3H)-ones as CFM-1 analogs: design, synthesis, QSAR analysis and anticancer activity” (Eur J Med Chem, 2015)
≈ marks a conversion by molar mass, not a printed value.

Columns and labels:
Daoy [1] = test: Cytotoxicity against human DaOY cells assessed as inhibition of cell survival at 25 ug/ml after 24 hrs by MTT assay; format: functional
Daoy [2] = test: Cytotoxicity against human DaOY cells assessed as inhibition of cell survival after 24 hrs by MTT assay; format: functional, cell-based
[3] = Cytotoxicity against human UW228-2 cells assessed as inhibition of cell survival at 25 ug/ml after 24 hrs by MTT assay; format: functional; conditions: UW228-2, 24 h
[4] = Cytotoxicity against human UW228-2 cells assessed as inhibition of cell survival after 24 hrs by MTT assay; format: functional, cell-based; conditions: UW228-2, 24 h
[5] = Cytotoxicity against human HuH7 cells assessed as inhibition of cell survival at 25 ug/ml after 24 hrs by MTT assay; format: functional; conditions: Huh-7, 24 h
[6] = Cytotoxicity against human HuH7 cells assessed as inhibition of cell survival after 24 hrs by MTT assay; format: functional, cell-based; conditions: Huh-7, 24 h
HeLa [7] = test: Cytotoxicity against human HeLa cells assessed as inhibition of cell survival at 25 ug/ml after 24 hrs by MTT assay; format: functional
MDA-MB-231 [8] = test: Cytotoxicity against human MDA-MB-231 cells assessed as inhibition of cell survival at 25 ug/ml after 24 hrs by MTT assay; format: functional; conditions: MDA-MB-231, 24 h
HeLa [9] = test: Cytotoxicity against human HeLa cells assessed as inhibition of cell survival after 24 hrs by MTT assay; format: functional, cell-based
MDA-MB-231 [10] = test: Cytotoxicity against human MDA-MB-231 cells assessed as inhibition of cell survival after 24 hrs by MTT assay; format: functional, cell-based; conditions: MDA-MB-231, 24 h

Compound | inhibition at 25 µg/mL (Daoy [1]) | IC50 (Daoy [2]) | inhibition at 25 µg/mL [3] | IC50 [4] | inhibition at 25 µg/mL [5] | IC50 [6] | inhibition at 25 µg/mL (HeLa [7]) | inhibition at 25 µg/mL (MDA-MB-231 [8]) | IC50 (HeLa [9]) | IC50 (MDA-MB-231 [10])
Cc1ccc(C(=O)Nc2ccccc2C(=O)N/N=C2\C(=O)Nc3ccccc32)cc1 | 72.8% | 3.94 µg/mL (≈ 9.89 µM) | 71.7% | 6.06 µg/mL (≈ 15.2 µM) | 56.4% | 5 µg/mL (≈ 12.5 µM) | 30.4% | 46.8% |  | 
Cc1ccc(C(=O)Nc2ccccc2C(=O)N/N=C2\C(=O)Nc3ccc(Cl)cc32)cc1 | 77.1% | 1.86 µg/mL (≈ 4.3 µM) | 88.7% | 6.87 µg/mL (≈ 15.9 µM) | 84.1% | 3.2 µg/mL (≈ 7.39 µM) | 86.7% | 85% | 6.52 µg/mL (≈ 15.1 µM) | 5.95 µg/mL (≈ 13.7 µM)
Cc1ccc(C(=O)Nc2ccccc2C(=O)N/N=C2\C(=O)Nc3ccc(C)cc32)cc1 | 49.1% |  | 23.2% |  | 38% |  | 46.5% | 37.7% |  | 
COc1ccc2c(c1)/C(=N/NC(=O)c1ccccc1NC(=O)c1ccc(C)cc1)C(=O)N2 | 77.2% | 4.42 µg/mL (≈ 10.3 µM) | 84.8% | 5.82 µg/mL (≈ 13.6 µM) | 81.6% | 4.6 µg/mL (≈ 10.7 µM) | 80.3% | 59.4% | 8.09 µg/mL (≈ 18.9 µM) | 10.9 µg/mL (≈ 25.4 µM)
Cc1ccc(C(=O)Nc2ccccc2C(=O)N/N=C2\C(=O)Nc3ccc([N+](=O)[O-])cc32)cc1 | 75.8% | 6.61 µg/mL (≈ 14.9 µM) | 38.5% |  | 55.2% | 11.6 µg/mL (≈ 26.2 µM) | 26.8% | 30.2% |  | 
O=C1Nc2ccccc2/C1=N/NC(=O)c1ccccc1NC(=O)c1ccc([N+](=O)[O-])cc1 | 79.1% | 2.72 µg/mL (≈ 6.33 µM) | 51.8% | 20 µg/mL (≈ 46.6 µM) | 48.6% |  | 55% | 44.9% | 16.5 µg/mL (≈ 38.5 µM) | 
O=C1Nc2ccc(Cl)cc2/C1=N/NC(=O)c1ccccc1NC(=O)c1ccc([N+](=O)[O-])cc1 | 36.6% |  | 41.6% |  | 43.1% |  | 31% | 35.5% |  | 
Cc1ccc2c(c1)/C(=N/NC(=O)c1ccccc1NC(=O)c1ccc([N+](=O)[O-])cc1)C(=O)N2 | 62.7% | 11.9 µg/mL (≈ 26.7 µM) | 58.7% | 9.62 µg/mL (≈ 21.7 µM) | 55.8% | 19.3 µg/mL (≈ 43.5 µM) | 46.1% | 40.8% |  | 
COc1ccc2c(c1)/C(=N/NC(=O)c1ccccc1NC(=O)c1ccc([N+](=O)[O-])cc1)C(=O)N2 | 11.1% |  | 24.5% |  | 33.2% |  | 16.3% | 34.8% |  | 
O=C1Nc2ccc([N+](=O)[O-])cc2/C1=N/NC(=O)c1ccccc1NC(=O)c1ccc([N+](=O)[O-])cc1 | 31.9% |  | 4.8% |  | 8.2% |  | 14.7% | 0% |  | 
Cc1ccc(-c2nc3ccccc3c(=O)n2/N=C2\C(=O)Nc3ccccc32)cc1 | 41.4% |  | 9.3% |  | 2.9% |  | 42.3% | 24.7% |  | 
Cc1ccc(-c2nc3ccccc3c(=O)n2/N=C2\C(=O)Nc3ccc(Cl)cc32)cc1 | 75.4% | 1.46 µg/mL (≈ 3.52 µM) | 88% | 5.7 µg/mL (≈ 13.7 µM) | 83.3% | 3.76 µg/mL (≈ 9.06 µM) | 80.8% | 78.1% | 8.6 µg/mL (≈ 20.7 µM) | 4.8 µg/mL (≈ 11.6 µM)
Cc1ccc(-c2nc3ccccc3c(=O)n2/N=C2\C(=O)Nc3ccc(C)cc32)cc1 | 47% |  | 2.1% |  | 7.2% |  | 42.8% | 34.3% |  | 
COc1ccc2c(c1)/C(=N/n1c(-c3ccc(C)cc3)nc3ccccc3c1=O)C(=O)N2 | 82.8% | 3.61 µg/mL (≈ 8.8 µM) | 58.9% | 20.8 µg/mL (≈ 50.7 µM) | 53.6% | 22.8 µg/mL (≈ 55.6 µM) | 68% | 35.4% | 9.89 µg/mL (≈ 24.1 µM) | 
Cc1ccc(-c2nc3ccccc3c(=O)n2/N=C2\C(=O)Nc3ccc([N+](=O)[O-])cc32)cc1 | 58.8% | 11.7 µg/mL (≈ 27.4 µM) | 22.8% |  | 0% |  | 52.9% | 23.6% | 21.1 µg/mL (≈ 49.7 µM) | 
O=C1Nc2ccccc2/C1=N/n1c(-c2cccs2)nc2ccccc2c1=O | 69.7% | 5.4 µg/mL (≈ 14.5 µM) | 0% |  | 0% |  | 36.2% | 10.7% |  | 
O=C1Nc2ccc(Cl)cc2/C1=N/n1c(-c2cccs2)nc2ccccc2c1=O | 69.3% | 15.7 µg/mL (≈ 38.5 µM) | 28.4% |  | 0% |  | 69.7% | 6.1% | 17 µg/mL (≈ 41.7 µM) | 
Cc1ccc2c(c1)/C(=N/n1c(-c3cccs3)nc3ccccc3c1=O)C(=O)N2 | 59.4% | 19 µg/mL (≈ 49.1 µM) | 32.1% |  | 32.9% |  | 57.8% | 29.5% | 19.3 µg/mL (≈ 49.9 µM) | 
COc1ccc2c(c1)/C(=N/n1c(-c3cccs3)nc3ccccc3c1=O)C(=O)N2 | 80.5% | 3.25 µg/mL (≈ 8.08 µM) | 56.4% | 21.4 µg/mL (≈ 53.2 µM) | 62.7% | 19.9 µg/mL (≈ 49.5 µM) | 67% | 13.6% | 11 µg/mL (≈ 27.3 µM) | 
O=C1Nc2ccc([N+](=O)[O-])cc2/C1=N/n1c(-c2cccs2)nc2ccccc2c1=O | 18.4% |  | 0% |  | 0% |  | 0% | 0% |  | 
Cc1cc(Br)cc2c1NC(=O)/C2=C1\SC(=S)NC1=O | 64.8% | 8.12 µg/mL (≈ 22.9 µM) | 51.4% | 16.4 µg/mL (≈ 46.2 µM) | 61.8% | 8.18 µg/mL (≈ 23 µM) | 57.6% | 52.5% | 13.5 µg/mL (≈ 38 µM) | 19.7 µg/mL (≈ 55.5 µM)
